Laboratory results reported in ChEMBL document CHEMBL1201862, “PubChem BioAssay data set” (2004).
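96-well plates; 48 h exposure; 5 concentrations. Endpoints by linear interpolation between flanking doses. Not reached: highest tested concentration assigned. GI50 is the concentration that inhibits growth by half.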 Activity calls are given as the source filed them. No stated cut-off is given here; in the data, active = GI50 up to about 1.1 µM and inactive = higher.

Assays:
Assay in all cases: NCI anticancer screen, dose series, 48 h
SN12C = tested on: SN12C
LXFL 529 = tested on: LXFL 529
HOP-92 = tested on: HOP-92
Malme-3M = tested on: Malme-3M
SF-295 = tested on: SF-295
SK-MEL-28 = tested on: SK-MEL-28
SF-539 = tested on: SF-539
LOX IMVI = tested on: LOX IMVI
DMS-273 = tested on: DMS-273
HOP-62 = tested on: HOP-62
NCI-H226 = tested on: NCI-H226
M19-MEL = tested on: M19-MEL
TK-10 = tested on: TK-10
HCT-116 = tested on: HCT-116
A498 = tested on: A498
U-251 = tested on: U-251
UACC-62 = tested on: UACC-62
NCI-H23 = tested on: NCI-H23
SNB-78 = tested on: SNB-78
OVCAR-3 = tested on: OVCAR-3
SNB-75 = tested on: SNB-75
SF-268 = tested on: SF-268
A549 = tested on: A549
OVCAR-8 = tested on: OVCAR-8
SNB-19 = tested on: SNB-19
HCC 2998 = tested on: HCC 2998
NCI-H460 = tested on: NCI-H460
SR = tested on: SR
HL-60 = tested on: HL-60
DMS-114 = tested on: DMS-114
HCT-15 = tested on: HCT-15
UACC-257 = tested on: UACC-257
M14 = tested on: M14
SK-MEL-2 = tested on: SK-MEL-2
786-0 = tested on: 786-0
EKVX = tested on: EKVX
IGROV-1 = tested on: IGROV-1
NCI-H522 = tested on: NCI-H522
K562 = tested on: K562
CCRF-CEM = tested on: CCRF-CEM
OVCAR-4 = tested on: OVCAR-4
MOLT-4 = tested on: MOLT-4
HT-29 = tested on: HT-29
DLD-1 = tested on: DLD-1
HOP-18 = tested on: HOP-18
SW-620 = tested on: SW-620
RPMI-8226 = tested on: RPMI-8226
RXF 393 = tested on: RXF 393
KM12 = tested on: KM12
XF498 = tested on: XF498
ACHN = tested on: ACHN
UO-31 = tested on: UO-31
SK-OV-3 = tested on: SK-OV-3
COLO 205 = tested on: COLO 205
KM-20L2 = tested on: KM-20L2
CAKI-1 = tested on: CAKI-1
OVCAR-5 = tested on: OVCAR-5
SK-MEL-5 = tested on: SK-MEL-5

Measured: GI50

C[N+]1(C)CCCC1C(=O)[O-] (configuration not stated)
inactive: SN12C > 100 µM | LXFL 529 > 100 µM | HOP-92 > 100 µM | Malme-3M > 100 µM | SF-295 > 100 µM | SK-MEL-28 > 100 µM | SF-539 > 100 µM | LOX IMVI > 100 µM | DMS-273 > 100 µM | HOP-62 > 100 µM | NCI-H226 > 100 µM | M19-MEL > 100 µM | TK-10 > 100 µM | HCT-116 > 100 µM | A498 > 100 µM | U-251 > 100 µM | UACC-62 > 100 µM | NCI-H23 > 100 µM | SNB-78 > 100 µM | OVCAR-3 > 100 µM | SNB-75 > 100 µM | SF-268 > 100 µM | A549 > 100 µM | OVCAR-8 > 100 µM | SNB-19 > 100 µM | HCC 2998 > 100 µM | NCI-H460 > 100 µM | SR > 100 µM | HL-60 > 100 µM | DMS-114 > 100 µM | UACC-257 > 100 µM | M14 > 100 µM | SK-MEL-2 > 100 µM | 786-0 > 100 µM | EKVX > 100 µM | IGROV-1 > 100 µM | NCI-H522 > 100 µM | K562 > 100 µM | CCRF-CEM > 100 µM | OVCAR-4 > 100 µM | MOLT-4 > 100 µM | HT-29 > 100 µM | DLD-1 > 100 µM | HOP-18 > 100 µM | SW-620 > 100 µM | RPMI-8226 > 100 µM | RXF 393 > 100 µM | KM12 > 100 µM | XF498 > 100 µM | ACHN > 100 µM | UO-31 > 100 µM | SK-OV-3 > 100 µM | COLO 205 > 100 µM | KM-20L2 > 100 µM
> 100 µM: HCT-15

Cc1cc(C)nc(NS(=O)(=O)c2ccc(Nc3c4ccccc4nc4c(C(=O)Nc5ccc(S(=O)(=O)N=C(N)N)cc5)ccc(Cl)c34)cc2)n1
inactive: SN12C 29.8 µM | LXFL 529 25.8 µM | Malme-3M 33.6 µM | SF-295 47.2 µM | SK-MEL-28 > 10 µM | SF-539 19.3 µM | LOX IMVI 19.4 µM | DMS-273 32.1 µM | HOP-62 23.2 µM | NCI-H226 21.9 µM | CAKI-1 36.1 µM | M19-MEL 26 µM | TK-10 34.6 µM | HCT-116 21.9 µM | A498 34.6 µM | OVCAR-5 41.2 µM | U-251 18.2 µM | SK-MEL-5 98.6 µM | UACC-62 19.3 µM | NCI-H23 19.7 µM | SNB-78 33.7 µM | OVCAR-3 17.5 µM | SNB-75 35.7 µM | SF-268 27.9 µM | A549 > 100 µM | OVCAR-8 17.5 µM | SNB-19 20.4 µM | HCC 2998 20 µM | NCI-H460 53.1 µM | SR 25.3 µM | HL-60 24.1 µM | DMS-114 21.7 µM | UACC-257 64.3 µM | M14 88.5 µM | 786-0 38.9 µM | EKVX 56.4 µM | NCI-H522 15.8 µM | K562 24.2 µM | OVCAR-4 23.9 µM | MOLT-4 23.5 µM | HT-29 36.3 µM | DLD-1 33.1 µM | HOP-18 18.7 µM | RPMI-8226 28.2 µM | RXF 393 18.2 µM | KM12 42.7 µM | XF498 24 µM | ACHN 43.5 µM | UO-31 25.4 µM | SK-OV-3 22.9 µM | COLO 205 55 µM | KM-20L2 35.6 µM
